Measurements reported in patent US12630543B2 (priority 2019, dated 2026).

Test system: rice blast
Assay type: cell-based
Conditions: 1,000 μl of 2,000 ppm test solution on oatmeal culture medium; 8 mm rice blast disc; 25° C. for 7 days; elongation length of hyphae vs without treatment

`COc1nn(-c2ccccn2)c(F)c1C(F)(F)F` [Example 2, 5-fluoro-3-methoxy-1-(2-pyridyl)-4-trifluoromethylpyrazole] gave a Preventive value of 80.
